The record followed here is patent publication US20240336658A1, “CYCLIC PEPTIDE AND PREPARATION METHOD AND USE THEREOF” (HANGZHOU HUIBO SCIENCE AND TECHNOLOGY CO., LTD, priority 2021, published 2024).

Test [1] concerns full-thickness skin defect wound surfaces. Description: Effects of cyclic peptide Hst1 on wound repair in mice (Example 10): healing rate, HE/Masson histology, CD31/VEGF immunohistochemistry. Type of test: in vivo, C57 BL/6 mice. How it is done:
This example adopted the propargylglycine-Hst1 cyclic peptide (Click-Histatin1) provided in Example 1, a cyclized Hst1 (Sortase A-cyclic histatin1) prepared by the Sortase A enzymatic method provided in Example 4, and a linear peptide Hst1 (Histatin1) to conduct animal experiments to observe the effect of the propargylglycine-Hst1 on the healing rates of the wound surfaces of mice. The concentration of the linear peptide Hst1 was 10 μM, the concentration of the propargylglycine-Hst1 cyclic peptide was 0.1 μM, and the concentration of the cyclized Hst1 prepared by the Sortase A enzymatic method was each 0.1 μM. 12 healthy male special pathogen-free grade C57 BL/6 mice (purchased from Guangdong Experimental Animal Center) of 6-8 weeks old and weighing 22-28 g. They were intraperitoneally injected with 5 ml/kg of 1% pentobarbital sodium for anesthesia. After the mice had no corneal reflex, the hair on their backs was carefully removed and disinfected with alcohol. […] full-thickness skin defect wound surfaces were prepared on the back of each mouse by using a circular skin punch. The 12 mice were divided into a Control (blank) group with 3 mice, a 10 μM linear peptide Hst1 (Histatin1) group with 3 mice, a 0.1 μM propynylglycine-Hst1 cyclic peptide (Click-Histatin1) group with 3 mice, and a 0.1 μM cyclized Hst1 prepared by a Sortase A enzymatic method (Sortase A-cyclic histatin1) group with 3 mice, according to a random number table method. Each wound surface was added with 0.5 ml of four drugs respectively, and administration was conducted every day until the wound surfaces of the experimental groups healed. Photographs were taken on days 0, 3, 5, 7, and 10 after surgery, and wound tissues were sampled on day 10 for subsequent pathological staining. On days 0, 3, 5, 7, and 10 after injury, the general condition of wound healing of the mice was observed and photographed with a digital camera (see FIG. 4), and the wound healing rate was calculated (see FIG. 5). Wound healing rate=(wound area immediately after injury−unhealed wound area at each time point)[…]wound area immediately after injury×100%. The wound specimens were fixed in 4% paraformaldehyde for 48 hours, rinsed with tap water for 10 minutes, dehydrated with graded ethanol, permeabilized with xylene, and embedded in paraffin to prepare 4 μm thick sections. Some sections were taken for HE staining and Masson staining, and observed for the thickness of the granulation tissue, the length of the dermal gap, and the newly grown collagen of the wound surface under an inverted fluorescence microscope at 40×, 100×, 200×, and 400× respectively (see FIGS. 6 and 7). 5 sections were taken from each mouse, and 5 fields of view were selected for each section. Data analysis was performed using the software Image-pro Plus. […] It was added with a rabbit anti-mouse CD31 primary antibody (with a dilution ratio of 1:300) and a mouse anti-VEGF (with a dilution ratio of 1:100), incubated overnight at 4° C., and washed with PBS. […] It was subjected to DAB development, hematoxylin counterstaining. gradient ethanol dehydration, xylene permeabilization, and resin blocking. 5 sections were taken from each mouse, and 5 fields of view were selected for each section. The sections were observed under a 400× inverted fluorescence microscope, and analyzed for the number of CD31-positive blood vessels (see FIG. 8) and VEGF expression amounts (see FIG. 9, shown in brown) by using Image-pro Plus software. The measurement data were expressed by M±SD, and the data were analyzed by one-way analysis of variance (ANOVA) and an independent samples T-test with SPSS 20.0 software to detect whether the differences among the groups were statistically significant, and a Bonferroni test was used for pairwise comparison. *p<0.05. **p<0.01. ***p<0.001 meant the difference was statistically significant, and p>0.05 was not statistically significant.

The next test deals with fibroblasts (NIH/3T3). Description: Scratch experiment, Hst1-MAD cyclic peptides (Example 23). Format: cell-based. The settings on record: dose required to achieve the same pharmaceutical effect in the scratch experiment. The text has this:
In this example, the propargylglycine-Hst1-MAD cyclic peptide, the homopropargylglycine-Hst1-MAD cyclic peptide, the dihomopropargylglycine-Hst1-MAD cyclic peptide and the linear Hst1 prepared in Examples 13, 14, and 15, and the Hst1-MAD head-to-tail cyclic peptide or N-terminal and C-terminal cyclized peptide prepared by the amide bond cyclization method provided by the literature of for example Sortase A as a tool for high-yield histatin cyclization, Jan G. M. Bolscher, The FASEB Journal. Research Communication, were adopted respectively, the reaction time was recorded, the yield of the reaction product was detected by HPLC, the proportion of side reactions in the reaction product was calculated, and activity comparison was performed. The activity comparison method was to calculate the dose required to achieve the same pharmaceutical effect through a scratch experiment. […] After 12 hours and 24 hours of culture, the scratched area of each group was calculated by using imageJ (Rawak Software, Inc. Germany) software, and the scratch area at 0 hour was an initial scratch area. The scratch healing rate was calculated in the following manner: W % (scratch healing rate)=(W0−Wt)/W0×100%, where W0=an initial scratch area, and Wt=a remaining scratch area; and the results were as shown in Table 14.

[2] abbreviates: day 10, immunohistochemistry, 0.1 μM Click-Histatin1, 10 μM Histatin1.

Consider “Linear Hst1: linear peptide Hst1 (Histatin1), amino acid sequence SEQ ID NO.1”, for which the “healing rate of the wound surface” value in test [1] (day 7, 10 μM Histatin1 vs 0.1 μM Click-Histatin1) is given as “no significant difference”. Besides, the “dermal gap length at both ends of the wound surface” value in test [1] (day 10, HE staining, 0.1 μM Click-Histatin1, 0.1 μM Sortase A-cyclic histatin1, 10 μM Histatin1) was “longest dermal gap length”. The “expression amount of collagen at the wound surfaces” value in test [1] (day 10, Masson staining, 0.1 μM Click-Histatin1, 0.1 μM Sortase A-cyclic histatin1, 10 μM Histatin1) is “significantly higher than that of the Control group”. Further, in test [1] (setting [2]), the VEGF expression amount result is listed as “higher than that in the Control group” and the “number of CD31-positive blood vessels under each field of view” value was “significantly higher than that in the Control group”. The “Dosage of agents required for scratch test” value with fibroblasts (NIH/3T3) is 10 µM.
